Structures can show the parent of a compound that is named as a salt.
Columns and labels:
CD-1 mice [1] = experiment: Resiniferatoxin-induced neurogenic inflammation (ear edema) in the mouse ear; type: in vivo; details: for % Inhibition of the Ear Edema: topical to left ear (20 μL) immediately after resiniferatoxin (0.05%) challenge, 7-mm ear biopsy weight 30 minutes after, lidocaine 0.5% w/v, sertaconazole nitrate 1% w/v in 70% ethanol/30% propylene glycol
Procedure: Eight Albino male CD-1 mice per group, 7-9 weeks old, were used. Induction of neurogenic inflammation in the mouse ear was based on known methods (Inoue H, et al., Br J Pharmacol. 110:1614-1620, 1993). A 20-μl volume of Resiniferatoxin (0.05%) prepared in acetone was applied to the left ears (8 mice per treatment group). The right ear was treated as a control and not treated. Lidocaine hydrochloride (Sigma Aldrich, St. Louis, Mo.) was prepared as a 0.5% w/v solution in 70% ethanol/30% propylene glycol vehicle. Sertaconazole nitrate (Grupo Ferrer International, Barcelona, Spain) was prepared as a 1.0% w/v solution in a 70% ethanol/30% propylene glycol vehicle and applied to the left ear (20 μL) immediately after resiniferatoxin challenge. The mice were sacrificed by CO2 inhalation 30 minutes after applying the solutions. The left and right ears were removed and a 7-mm biopsy was removed from each ear and weighed. The difference in biopsy weights between the right and left ear was calculated. The percent inhibition was calculated by comparing treatments to resiniferatoxin alone. Anti-neurogenic inflammation effects of compounds are evident as an inhibition of the increase in ear weight.

CD-1 mice [2] = experiment: Substance P-induced itch-associated scratching behavior in mice; type: in vivo, mouse
Description: In this model, an itch-associated response is induced by intradermal injection of the neuropetide, Substance-P, in mice, and scratching behavior is observed and quantitated. […] Clinically, scratching is used as an objective measure of itch since itch is a sensation which promotes the desire to scratch the stimulated area (Yosipovitch G., Definitions of Itch, in Itch Basic Mechanisms and Therapy, ed. Yosipovitch G., et al, 2003) Eight Albino male CD-1 mice per group, 7-9 weeks old, were used. Induction of scratching behavior in the mouse was based on known methods (Andoh T, et al., J Pharmacol Exp Ther. 286:1140-1145, 1998) and produces features similar to itch in humans. An itch-associated response was induced by intradermal injection of Substance P in CD-1 mice, and scratching behavior is observed and quantitated. Before the experiment, mice were individually housed in a plastic cage for at least 1 hour for acclimation. Mice are pre-treated for 30 minutes with topical application of Sertaconazole Nitrate (1%) prepared in 100% ethanol, to an area of the back, which had been shaved one day prior to the experiment. […] The number of scratches elicited during a 30 minute period after injection of Substance-P was determined by playback of the videotape.

| Structure (SMILES) | % Inhibition of the Ear Edema (CD-1 mice [1]) [%] | reduction of the itch compared to placebo (CD-1 mice [2]; Substance P scratching model, topical 1% sertaconazole nitrate) [%] | Scratches per 30 min (Mean ± S. D.) (CD-1 mice [2]; topical 1% w/v in 100% ethanol on shaved back, 30 minutes pre-treatment, 300 ug Substance P intradermal, 30 minute period after injection) | reducing neurogenic inflammation (result in words) (CD-1 mice [1]; resiniferatoxin mouse ear model, compared to the control or untreated ear) |
| --- | --- | --- | --- | --- |
| CCN(CC)CC(=O)Nc1c(C)cccc1C [Lidocaine, Lidocaine hydrochloride] | 28.7 | – | – | – |
| Clc1ccc(C(Cn2ccnc2)OCc2csc3c(Cl)cccc23)c(Cl)c1 (centres unmarked) [Sertaconazole Nitrate, Sertaconazole nitrate] | 48.9 | 38.7 | 39.8 ± 2.7 | highly effective |

— patent US20060142304A1, “Method for treating or preventing pruritic and neurogenic skin disorders” (priority 2004, published 2006)
